Experiments:
Assay type in all cases: in vivo
Kochia (Kochia scoparia) [1] = test: Test A preemergence
Summary of the method: (§1)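 In a loam soil and sand blend, planted seeds got a preemergence directed soil spray, and young plants at the one- to two-leaf stage, 2–10 cm high, got a postemergence application; ~10 d greenhouse hold; injury rated visually, 0 = none, 100 = complete control.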

[2] = tested on: ryegrass, Italian (Italian ryegrass, Lolium multiflorum); test: Test A preemergence
Summary of the method: as §1

[3] = tested on: giant foxtail (Setaria faberii); test: Test A preemergence
Summary of the method: as §1

[4] = tested on: pigweed (Amaranthus retroflexus); test: Test A preemergence
[5] = tested on: barnyardgrass (Echinochloa crus-galli); test: Test A preemergence
Summary of the method: as §1

[6] = tested on: ragweed (common ragweed, Ambrosia elatior); test: Test A preemergence
Summary of the method: as §1

[7] = tested on: ducksalad (Heteranthera limosa); test: Test B flooded paddy test; conditions: 250 g ai/ha, Flood, 0 to 100 scale where 0 is no effect and 100 is complete control
Summary of the method: (§2)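 Flooding to 3 cm over soil accompanied treatment, which consisted of adding compound to the standing water around 2-leaf plants; depth was then maintained. Visual assessment versus controls followed at 13 to 15 d (scale 0–100, 0 meaning no effect).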

rice (Oryra sativa) = test: Test B flooded paddy test; conditions: 250 g ai/ha, Flood, 0 to 100 scale where 0 is no effect and 100 is complete control
Summary of the method: as §2

[8] = tested on: barnyardgrass (Echinochloa crus-galli); test: Test B flooded paddy test; conditions: 250 g ai/ha, Flood, 0 to 100 scale where 0 is no effect and 100 is complete control
Summary of the method: as §2

[9] = tested on: sedge, umbrella (small-flower umbrella sedge, Cyperus difformis); test: Test B flooded paddy test; conditions: 250 g ai/ha, Flood, 0 to 100 scale where 0 is no effect and 100 is complete control
Summary of the method: as §2

[10] = tested on: wheat (Triticum aestivum); test: Test A postemergence
Summary of the method: as §1

Kochia (Kochia scoparia) [11] = test: Test A postemergence
Summary of the method: as §1

[12] = tested on: blackgrass (Alopecurus myosuroides); test: Test A postemergence
Summary of the method: as §1

[13] = tested on: ryegrass, Italian (Italian ryegrass, Lolium multiflorum); test: Test A postemergence
Summary of the method: as §1

[14] = tested on: Galium (catchweed bedstraw, Galium aparine); test: Test A postemergence
Summary of the method: as §1

[15] = tested on: giant foxtail (Setaria faberii); test: Test A postemergence
Summary of the method: as §1

[16] = tested on: pigweed (Amaranthus retroflexus); test: Test A postemergence
Summary of the method: as §1

[17] = tested on: barnyardgrass (Echinochloa crus-galli); test: Test A postemergence
Summary of the method: as §1

corn (Zea mays) = test: Test A postemergence
Summary of the method: as §1

[18] = tested on: ragweed (common ragweed, Ambrosia elatior); test: Test A postemergence
Summary of the method: as §1

[19] = 125 g ai/ha, Preemergence, visual injury after approximately 10 d, 0 to 100 scale where 0 is no effect and 100 is complete control
[20] = Preemergence, 500 g ai/ha, visual injury approx. 10 d
[21] = 125 g ai/ha, postemergence, visual rating after approx. 10 d, 0 to 100 scale (0 no effect, 100 complete control)
[22] = Postemergence, 500 g ai/ha, 0 to 100 scale where 0 is no effect and 100 is complete control

## CON1CC[C@H](c2cccc(C(F)(F)F)c2)[C@@H](C(=O)Nc2cccc(F)c2F)C1=O [Compound 1169]
Kochia (Kochia scoparia) [1]; Bassia scoparia, pre-emergence, 240 h, 31 g ai/ha, Preemergence, 0 to 100 scale where 0 is no effect and 100 is complete control, read-out: Kochia plant response rating
  pest or weed control at 31 g/ha: 30%
Kochia (Kochia scoparia) [1]; Bassia scoparia, pre-emergence, 240 h, 125 g ai/ha, preemergence, 0 to 100 scale where 0 is no effect and 100 is complete control, approx. 10 d, read-out: Kochia plant response rating
  pest or weed control at 125 g/ha: 30%
[2]; Lolium multiflorum, pre-emergence, 240 h, 31 g ai/ha, Preemergence, 0 to 100 scale where 0 is no effect and 100 is complete control, read-out: Ryegrass, Italian plant response rating
  pest or weed control at 31 g/ha: 0%
[2]; Lolium multiflorum, pre-emergence, 240 h, 125 g ai/ha, preemergence, 0 to 100 scale where 0 is no effect and 100 is complete control, approx. 10 d, read-out: Ryegrass, Italian plant response rating
  pest or weed control at 125 g/ha: 0%
[3]; Setaria faberi, pre-emergence, 240 h, 31 g ai/ha, Preemergence, 0 to 100 scale where 0 is no effect and 100 is complete control, read-out: Foxtail, Giant plant response rating
  pest or weed control at 31 g/ha: 70%
[3]; Setaria faberi, pre-emergence, 240 h, 125 g ai/ha, preemergence, 0 to 100 scale where 0 is no effect and 100 is complete control, approx. 10 d, read-out: Foxtail, Giant plant response rating
  pest or weed control at 125 g/ha: 90%
[4]; Amaranthus retroflexus, pre-emergence, 240 h, 31 g ai/ha, Preemergence, 0 to 100 scale where 0 is no effect and 100 is complete control, read-out: Pigweed plant response rating
  pest or weed control at 31 g/ha: 0%
[4]; Amaranthus retroflexus, pre-emergence, 240 h, 125 g ai/ha, preemergence, 0 to 100 scale where 0 is no effect and 100 is complete control, approx. 10 d, read-out: Pigweed plant response rating
  pest or weed control at 125 g/ha: 0%
[5]; Echinochloa crus-galli, pre-emergence, 240 h, 31 g ai/ha, Preemergence, 0 to 100 scale where 0 is no effect and 100 is complete control, read-out: Barnyardgrass plant response rating
  pest or weed control at 31 g/ha: 70%
[5]; Echinochloa crus-galli, pre-emergence, 240 h, 125 g ai/ha, preemergence, 0 to 100 scale where 0 is no effect and 100 is complete control, approx. 10 d, read-out: Barnyardgrass plant response rating
  pest or weed control at 125 g/ha: 90%
[6]; Ambrosia artemisiifolia, pre-emergence, 240 h, 31 g ai/ha, Preemergence, 0 to 100 scale where 0 is no effect and 100 is complete control, read-out: Ragweed plant response rating
  pest or weed control at 31 g/ha: 0%
[6]; Ambrosia artemisiifolia, pre-emergence, 240 h, 125 g ai/ha, preemergence, 0 to 100 scale where 0 is no effect and 100 is complete control, approx. 10 d, read-out: Ragweed plant response rating
  pest or weed control at 125 g/ha: 0%
[7]; Heteranthera limosa, read-out: Ducksalad plant response rating
  pest or weed control at 250 g/ha: 0%
Rice (Oryra sativa); Oryza sativa, read-out: Rice plant response rating
  pest or weed control at 250 g/ha: 0%
[8]; Echinochloa crus-galli, read-out: Barnyardgrass plant response rating
  pest or weed control at 250 g/ha: 0%
[9]; Cyperus difformis, read-out: Sedge, Umbrella plant response rating
  pest or weed control at 250 g/ha: 0%
[10]; Triticum aestivum, post-emergence, 240 h, 125 g ai/ha, postemergence, visual injury vs untreated controls after approx. 10 d, 0 = no effect, 100 = complete control, read-out: Wheat plant response rating (0 to 100 scale)
  plant injury at 125 g/ha: 0%
Kochia (Kochia scoparia) [11]; Bassia scoparia, post-emergence, 240 h, 125 g ai/ha, postemergence, visual injury vs untreated controls after approx. 10 d, 0 = no effect, 100 = complete control, read-out: Kochia plant response rating (0 to 100 scale)
  pest or weed control at 125 g/ha: 20%
Kochia (Kochia scoparia) [11]; Bassia scoparia, post-emergence, 240 h, Postemergence, 31 g ai/ha, visual injury after approx. 10 d, 0 to 100 scale, 0 no effect, 100 complete control, read-out: Plant response rating, Kochia
  pest or weed control at 31 g/ha: 0%
[12]; Alopecurus myosuroides, post-emergence, 240 h, 125 g ai/ha, postemergence, visual injury vs untreated controls after approx. 10 d, 0 = no effect, 100 = complete control, read-out: Blackgrass plant response rating (0 to 100 scale)
  pest or weed control at 125 g/ha: 0%
[12]; Alopecurus myosuroides, post-emergence, 240 h, Postemergence, 31 g ai/ha, visual injury after approx. 10 d, 0 to 100 scale, 0 no effect, 100 complete control, read-out: Plant response rating, Blackgrass
  pest or weed control at 31 g/ha: 0%
[13]; Lolium multiflorum, post-emergence, 240 h, 125 g ai/ha, postemergence, visual injury vs untreated controls after approx. 10 d, 0 = no effect, 100 = complete control, read-out: Ryegrass, Italian plant response rating (0 to 100 scale)
  pest or weed control at 125 g/ha: 0%
[14]; Galium, post-emergence, 240 h, 125 g ai/ha, postemergence, visual injury vs untreated controls after approx. 10 d, 0 = no effect, 100 = complete control, read-out: Galium plant response rating (0 to 100 scale)
  pest or weed control at 125 g/ha: 0%
[14]; Galium, post-emergence, 240 h, Postemergence, 31 g ai/ha, visual injury after approx. 10 d, 0 to 100 scale, 0 no effect, 100 complete control, read-out: Plant response rating, Galium
  pest or weed control at 31 g/ha: 0%
[15]; Setaria faberi, post-emergence, 240 h, 125 g ai/ha, postemergence, visual injury vs untreated controls after approx. 10 d, 0 = no effect, 100 = complete control, read-out: Foxtail, Giant plant response rating (0 to 100 scale)
  pest or weed control at 125 g/ha: 70%
[15]; Setaria faberi, post-emergence, 240 h, Postemergence, 31 g ai/ha, visual injury after approx. 10 d, 0 to 100 scale, 0 no effect, 100 complete control, read-out: Plant response rating, Foxtail, Giant
  pest or weed control at 31 g/ha: 30%
[16]; Amaranthus retroflexus, post-emergence, 240 h, 125 g ai/ha, postemergence, visual injury vs untreated controls after approx. 10 d, 0 = no effect, 100 = complete control, read-out: Pigweed plant response rating (0 to 100 scale)
  pest or weed control at 125 g/ha: 0%
[17]; Echinochloa crus-galli, post-emergence, 240 h, 125 g ai/ha, postemergence, visual injury vs untreated controls after approx. 10 d, 0 = no effect, 100 = complete control, read-out: Barnyardgrass plant response rating (0 to 100 scale)
  pest or weed control at 125 g/ha: 80%
[17]; Echinochloa crus-galli, post-emergence, 240 h, Postemergence, 31 g ai/ha, visual injury after approx. 10 d, 0 to 100 scale, 0 no effect, 100 complete control, read-out: Plant response rating, Barnyardgrass
  pest or weed control at 31 g/ha: 30%
Corn (Zea mays); Zea mays, post-emergence, 240 h, 125 g ai/ha, postemergence, visual injury vs untreated controls after approx. 10 d, 0 = no effect, 100 = complete control, read-out: Corn plant response rating (0 to 100 scale)
  plant injury at 125 g/ha: 0%
Corn (Zea mays); Zea mays, post-emergence, 240 h, Postemergence, 31 g ai/ha, visual injury after approx. 10 d, 0 to 100 scale, 0 no effect, 100 complete control
  Corn plant response rating (crop injury, 0 = no effect, 100 = complete kill) at 31 g/ha: 0%
[18]; Ambrosia artemisiifolia, post-emergence, 240 h, 125 g ai/ha, postemergence, visual injury vs untreated controls after approx. 10 d, 0 = no effect, 100 = complete control, read-out: Ragweed plant response rating (0 to 100 scale)
  pest or weed control at 125 g/ha: 0%

## O=C1NCC(c2cccc(C(F)(F)F)c2F)C1C(=O)Nc1cccc(F)c1F (centres unmarked) [Compound 591]
Kochia (Kochia scoparia) [1]; [19]
  Plant response rating, Kochia: 30
Kochia (Kochia scoparia) [1]; [20]
  Kochia plant response rating (0 to 100 scale, 0 is no effect, 100 is complete control): 60
[2]; [19]
  Plant response rating, Ryegrass, Italian: 20
[2]; [20]
  Ryegrass, Italian plant response rating (0 to 100 scale, 0 is no effect, 100 is complete control): 60
[3]; [19]
  Plant response rating, Foxtail, Giant: 90
[3]; [20]
  Foxtail, Giant plant response rating (0 to 100 scale, 0 is no effect, 100 is complete control): 90
[4]; [19]
  Plant response rating, Pigweed: 0
[4]; [20]
  Pigweed plant response rating (0 to 100 scale, 0 is no effect, 100 is complete control): 40
[5]; [19]
  Plant response rating, Barnyardgrass: 90
[5]; [20]
  Barnyardgrass plant response rating (0 to 100 scale, 0 is no effect, 100 is complete control): 90
[6]; [19]
  Plant response rating, Ragweed: 0
[6]; [20]
  Ragweed plant response rating (0 to 100 scale, 0 is no effect, 100 is complete control): 60
[7]; 13 to 15 d
  Plant response rating, Ducksalad: 100
Rice (Oryra sativa); 13 to 15 d
  Plant response rating, Rice: 35
[8]; 13 to 15 d
  Plant response rating, Barnyardgrass: 65
[9]; 13 to 15 d
  Plant response rating, Sedge, Umbrella: 0
[10]; [21]
  Plant response rating, Wheat: 50
[10]; [22]
  Plant response rating, Wheat: 60
Kochia (Kochia scoparia) [11]; [21]
  Plant response rating, Kochia: 20
Kochia (Kochia scoparia) [11]; [22]
  Plant response rating, Kochia: 60
[12]; [21]
  Plant response rating, Blackgrass: 50
[12]; [22]
  Plant response rating, Blackgrass: 60
[13]; [21]
  Plant response rating, Ryegrass, Italian: 0
[13]; [22]
  Plant response rating, Ryegrass, Italian: 70
[14]; [21]
  Plant response rating, Galium: 40
[14]; [22]
  Plant response rating, Galium: 50
[15]; [21]
  Plant response rating, Foxtail, Giant: 90
[15]; [22]
  Plant response rating, Foxtail, Giant: 90
[16]; [21]
  Plant response rating, Pigweed: 20
[16]; [22]
  Plant response rating, Pigweed: 70
[17]; [21]
  Plant response rating, Barnyardgrass: 90
[17]; [22]
  Plant response rating, Barnyardgrass: 90
Corn (Zea mays); [21]
  Plant response rating, Corn: 70
Corn (Zea mays); [22]
  Plant response rating, Corn: 80
[18]; [21]
  Plant response rating, Ragweed: 0
[18]; [22]
  Plant response rating, Ragweed: 30

From patent US12077503B2, “Substituted cyclic amides and their use as herbicides” (FMC CORPORATION, priority 2015, dated 2024)
